Test results as given in patent publication EP2468270A1, “(R)-2-(3-fluoro-4-phenylphenyl)propionic acid for use in the treatment of skin diseases” (GALENpharma GmbH, priority 2010, dated 2012).

Columns and labels:
[1] = tested on: CGRP (Calcitonin Gene-Related Peptide); conditions: isolated rat skin; Averbeck et al. 2003; cited from earlier work
UV erythema (sunburn) = assay: UV erythema test, twice the minimum erythema dose (Example 2); type: in vivo, human; conditions: four test subjects, skin of the back, topical spray 0.1, 0.25, 1 and 4% (w/w), visual score and spectroscopic colour measurement, 0-48 hours
Procedure: The clinical-pharmacological studies of the following Examples 2 to 4 were carried out on healthy adults as model for non-immunological inflammation. In a preliminary test on the skin of the back involving a group of four test subjects, the "minimum erythema dose" following irradiation with a standardized daylight irradiation apparatus ([…]) was established. In the main test 8 areas of the skin of the back of each subject were irradiated with twice the "minimum erythema dose" and then treated with tarenflurbil spray with 0.1, 0.25, 1 and 4% tarenflurbil (w/w) as well as the associated placebo formulations and the comparison preparations (triamcinolone acetonide 0.2% (w/w); mometasone furoate solution 0.1% (w/w)). […] The effect of the test preparation with the highest tarenflurbil concentration was much more marked than with the comparison solutions triamcinolone acetonide 0.2% (w/w) or mometasone furoate 0.1% (w/w).

LT-C4/E4/D4 = assay: in vitro whole blood culture test system, zymosan activation: leukotriene synthesis; type: cell-based; conditions: human whole blood, in allergy sufferers (Donor B), 0.39-100 µg tarenflurbil/ml, Figure 1
Procedure: In an in vitro whole blood culture test system with human whole blood from 3 donors in each case, pre-incubation was carried out for 2 hours with 0.39, 1.56, 6.25, 25 and 100 µg tarenflurbil/ml whole blood before activation with zymosan (agent for producing sterile inflammations) took place. […] A group determination of LT-C4/E4/D4 was carried out.

[2] = tested on: BDNF (brain-derived neurotrophic factor); assay: in vitro whole blood culture test system, zymosan activation: BDNF release; type: cell-based; conditions: human whole blood from 3 donors, 0.39-100 µg tarenflurbil/ml
Procedure: In an in vitro whole blood culture test system with human whole blood from 3 donors in each case, pre-incubation was carried out for 2 hours with 0.39, 1.56, 6.25, 25 and 100 µg tarenflurbil/ml whole blood before activation with zymosan (agent for producing sterile inflammations) took place. In total the following 37 parameters were measured which allow a broad overview of the reaction of the leucocytes under inflammatory conditions and thus also of the effects of tarenflurbil in such an environment: • 1. […] Brain-derived neurotrophic factor (BDNF) • 3.

[3] = in mice; Leipold et al., Chirality 2004; cited from earlier work
Alzheimer's disease = conditions: extensive clinical Phase III studies; WO 2005/065069, Imbimbo 2009; cited from earlier work
[4] = in humans; Geisslinger et al., J Clin Pharmacol. 1996; cited from earlier work
PGE2 (prostaglandin E2) = assay: in vitro whole blood culture test system, zymosan activation: PGE2 formation; type: cell-based; conditions: human whole blood from 3 donors, 2 hours pre-incubation with 0.39, 1.56, 6.25, 25 and 100 µg tarenflurbil/ml, then zymosan
Procedure: (§1) In an in vitro whole blood culture test system with human whole blood from 3 donors in each case, pre-incubation was carried out for 2 hours with 0.39, 1.56, 6.25, 25 and 100 µg tarenflurbil/ml whole blood before activation with zymosan (agent for producing sterile inflammations) took place. In total the following 37 parameters were measured which allow a broad overview of the reaction of the leucocytes under inflammatory conditions and thus also of the effects of tarenflurbil in such an environment: • 1. Amphiregulin • 2. Brain-derived neurotrophic factor (BDNF) • 3. Interleukin-1 alpha (IL-1α) • 4. IL-1β • 5. IL-1 receptor antagonist (IL-1Ra) • 6. IL-2 • 7. IL-3 • 8. IL-4 • 9. IL-5 • 10. IL-6 • 11. IL-7 • 12. IL-8 • 13. IL-10 • 14. IL-12, p40 subunit (IL-12p40) • 15. IL-12p70 • 16. IL-15 • 17. IL-17 • 18. IL-18 • 19. IL-23 • 20. Epiregulin • 21. Eotaxin (Eot.) • 22. Factor VII (F. VII) • 23. Granulocyte-monocytes colony stimulating factor (GM-CSF) • 24. Interferon gamma (IFNγ) • 25. Intercellular adhesion molecule-1 (ICAM-1) • 26. Monocyte chemoattractand protein-1 (MCP-1) • 27. Migration inhibitory protein-1 alpha (MIP-1α) • 28. MIP-1ß • 29. Matrix-metalloproteinase-2 (MMP-2) • 30. MMP-3 • 31. MMP-9 • 32. Oncostatin M (OSM) • 33. Stem-cell factor (SCF) • 34. […] (TGFα) • 35. Tumor necrosis factor alpha (TNFα) • 36. TNFß • 37. Vascular endothelial growth factor (VEGF)

isolated rat skin = conditions: Pethö et al. 2001, the authors attributed the effect to S-flurbiprofen impurity; cited from earlier work
[5] = tested on: TGFß (transforming growth factor ß); assay: in vitro whole blood culture test system, zymosan activation: TGFß release; type: cell-based; conditions: human whole blood from 3 donors, 0.39-100 µg tarenflurbil/ml
Procedure: as §1

Row | SMILES | inhibition of the release of CGRP [1] | degree of erythema (UV erythema) (UV erythema (sunburn)) | leukotriene synthesis (LT-C4/E4/D4) (LT-C4/E4/D4) | BDNF (brain-derived neurotrophic factor) release [2] | bioinversion into S-flurbiprofen [3] | efficacy against Alzheimer's disease (Alzheimer's disease) | conversion to S-flurbiprofen [4] | PGE2 (prostaglandin E2) formation (PGE2 (prostaglandin E2)) | effect on bradykinin-induced nociceptor sensitization to heat (isolated rat skin) | TGFß (transforming growth factor ß) release [5]
1 | C[C@H](C(=O)O)c1ccc(-c2ccccc2)c(F)c1 [S-flurbiprofen] | effective |  |  |  |  |  |  |  |  | 
2 | C[C@@H](C(=O)O)c1ccc(-c2ccccc2)c(F)c1 [tarenflurbil, (R)-2-(3-fluoro-4-phenylphenyl)propionic acid] | ineffective | dose-dependent reduction | dose-dependent reduction | dose-dependent reduction | considerable bioinversion | ineffective | not to be converted to S-flurbiprofen | dose-dependent reduction | effective | dose-dependent reduction
